From BigSolDB 2.1

In the case of O=C(N[C@@H](CO)C(=O)O)OCc1ccccc1, the solubility (mole fraction) (in 2-butanone, 283.15 K) is reported as 0.0333, the solubility (mole fraction) (in 2-butanone, 288.15 K) is reported as 0.037 and the solubility (mole fraction) (in 2-butanone, 293.15 K) is reported as 0.0404. It also gave a solubility (mole fraction) (in 2-butanone, 298.15 K) of 0.0456, a solubility (mole fraction) (in 2-butanone, 303.15 K) of 0.052 and a solubility (mole fraction) (in 2-butanone, 308.15 K) of 0.0604. For the same molecule, the solubility (mole fraction) (in 2-butanone, 313.15 K) was 0.0726, the solubility (mole fraction) (in 2-butanone, 318.15 K) was 0.0946 and the solubility (mole fraction) (in 2-butanone, 323.15 K) was 0.115. The solubility (mole fraction) (in acetone, 283.15 K) was 0.0708, the solubility (mole fraction) (in acetone, 288.15 K) was 0.0762 and the solubility (mole fraction) (in acetone, 293.15 K) was 0.0835. It also gave a solubility (mole fraction) (in acetone, 298.15 K) of 0.0955, a solubility (mole fraction) (in acetone, 303.15 K) of 0.11 and a solubility (mole fraction) (in acetone, 308.15 K) of 0.127. The solubility (mole fraction) (in acetone, 313.15 K) was 0.15, the solubility (mole fraction) (in acetone, 318.15 K) was 0.176 and the solubility (mole fraction) (in acetone, 323.15 K) was 0.205. The solubility (mole fraction) (in acetonitrile, 283.15 K) was 0.00705, the solubility (mole fraction) (in acetonitrile, 288.15 K) was 0.00841 and the solubility (mole fraction) (in acetonitrile, 293.15 K) was 0.00993. For the same molecule, the solubility (mole fraction) (in acetonitrile, 298.15 K) was 0.0126, the solubility (mole fraction) (in acetonitrile, 303.15 K) was 0.0161 and the solubility (mole fraction) (in acetonitrile, 308.15 K) was 0.0213. It also gave a solubility (mole fraction) (in acetonitrile, 313.15 K) of 0.0276, a solubility (mole fraction) (in acetonitrile, 318.15 K) of 0.0385 and a solubility (mole fraction) (in acetonitrile, 323.15 K) of 0.0625. It also gave a solubility (mole fraction) (in ethyl acetate, 283.15 K) of 0.0143, a solubility (mole fraction) (in ethyl acetate, 288.15 K) of 0.0163 and a solubility (mole fraction) (in ethyl acetate, 293.15 K) of 0.0189. For the same molecule, the solubility (mole fraction) (in ethyl acetate, 298.15 K) was 0.0217, the solubility (mole fraction) (in ethyl acetate, 303.15 K) was 0.0257 and the solubility (mole fraction) (in ethyl acetate, 308.15 K) was 0.0296. It also gave a solubility (mole fraction) (in ethyl acetate, 313.15 K) of 0.0353, a solubility (mole fraction) (in ethyl acetate, 318.15 K) of 0.0429 and a solubility (mole fraction) (in ethyl acetate, 323.15 K) of 0.0541. The solubility (mole fraction) (in isobutanol, 283.15 K) was 0.0221, the solubility (mole fraction) (in isobutanol, 288.15 K) was 0.0246 and the solubility (mole fraction) (in isobutanol, 293.15 K) was 0.0296. It also gave a solubility (mole fraction) (in isobutanol, 298.15 K) of 0.0365, a solubility (mole fraction) (in isobutanol, 303.15 K) of 0.0443 and a solubility (mole fraction) (in isobutanol, 308.15 K) of 0.0552. For the same molecule, the solubility (mole fraction) (in isobutanol, 313.15 K) was 0.0665, the solubility (mole fraction) (in isobutanol, 318.15 K) was 0.0912 and the solubility (mole fraction) (in isobutanol, 323.15 K) was 0.115. The solubility (mole fraction) (in isopropanol, 283.15 K) was 0.0443, the solubility (mole fraction) (in isopropanol, 288.15 K) was 0.0505 and the solubility (mole fraction) (in isopropanol, 293.15 K) was 0.0591. It also gave a solubility (mole fraction) (in isopropanol, 298.15 K) of 0.0707, a solubility (mole fraction) (in isopropanol, 303.15 K) of 0.0841 and a solubility (mole fraction) (in isopropanol, 308.15 K) of 0.103. The solubility (mole fraction) (in isopropanol, 313.15 K) was 0.123, the solubility (mole fraction) (in isopropanol, 318.15 K) was 0.152 and the solubility (mole fraction) (in isopropanol, 323.15 K) was 0.185. For the same molecule, the solubility (mole fraction) (in methyl acetate, 283.15 K) was 0.0215, the solubility (mole fraction) (in methyl acetate, 288.15 K) was 0.0262 and the solubility (mole fraction) (in methyl acetate, 293.15 K) was 0.0318. The solubility (mole fraction) (in methyl acetate, 298.15 K) was 0.0365, the solubility (mole fraction) (in methyl acetate, 303.15 K) was 0.0418 and the solubility (mole fraction) (in methyl acetate, 308.15 K) was 0.0477. It also gave a solubility (mole fraction) (in methyl acetate, 313.15 K) of 0.0536, a solubility (mole fraction) (in methyl acetate, 318.15 K) of 0.0635 and a solubility (mole fraction) (in methyl acetate, 323.15 K) of 0.0804. For the same molecule, the solubility (mole fraction) (in n-butanol, 283.15 K) was 0.0279, the solubility (mole fraction) (in n-butanol, 288.15 K) was 0.0313 and the solubility (mole fraction) (in n-butanol, 293.15 K) was 0.0388. For the same molecule, the solubility (mole fraction) (in n-butanol, 298.15 K) was 0.0463, the solubility (mole fraction) (in n-butanol, 303.15 K) was 0.0562 and the solubility (mole fraction) (in n-butanol, 308.15 K) was 0.067. For the same molecule, the solubility (mole fraction) (in n-butanol, 313.15 K) was 0.0821, the solubility (mole fraction) (in n-butanol, 318.15 K) was 0.102 and the solubility (mole fraction) (in n-butanol, 323.15 K) was 0.137. For the same molecule, the solubility (mole fraction) (in n-pentanol, 283.15 K) was 0.0265, the solubility (mole fraction) (in n-pentanol, 288.15 K) was 0.0286 and the solubility (mole fraction) (in n-pentanol, 293.15 K) was 0.0331. It also gave a solubility (mole fraction) (in n-pentanol, 298.15 K) of 0.039, a solubility (mole fraction) (in n-pentanol, 303.15 K) of 0.0455 and a solubility (mole fraction) (in n-pentanol, 308.15 K) of 0.0542. The solubility (mole fraction) (in n-pentanol, 313.15 K) was 0.0628, the solubility (mole fraction) (in n-pentanol, 318.15 K) was 0.0854 and the solubility (mole fraction) (in n-pentanol, 323.15 K) was 0.112. The solubility (mole fraction) (in n-propanol, 283.15 K) was 0.0496, the solubility (mole fraction) (in n-propanol, 288.15 K) was 0.0567 and the solubility (mole fraction) (in n-propanol, 293.15 K) was 0.0645. It also gave a solubility (mole fraction) (in n-propanol, 298.15 K) of 0.0722, a solubility (mole fraction) (in n-propanol, 303.15 K) of 0.0838 and a solubility (mole fraction) (in n-propanol, 308.15 K) of 0.0956. The solubility (mole fraction) (in n-propanol, 313.15 K) was 0.11, the solubility (mole fraction) (in n-propanol, 318.15 K) was 0.127 and the solubility (mole fraction) (in n-propanol, 323.15 K) was 0.175. For the same molecule, the solubility (mole fraction) (in sec-butanol, 283.15 K) was 0.0335, the solubility (mole fraction) (in sec-butanol, 288.15 K) was 0.0385 and the solubility (mole fraction) (in sec-butanol, 293.15 K) was 0.0471. It also gave a solubility (mole fraction) (in sec-butanol, 298.15 K) of 0.0585, a solubility (mole fraction) (in sec-butanol, 303.15 K) of 0.0715 and a solubility (mole fraction) (in sec-butanol, 308.15 K) of 0.0862. The solubility (mole fraction) (in sec-butanol, 313.15 K) was 0.109, the solubility (mole fraction) (in sec-butanol, 318.15 K) was 0.13 and the solubility (mole fraction) (in sec-butanol, 323.15 K) was 0.159. The solubility (mole fraction) (in water, 283.15 K) was 0.00097, the solubility (mole fraction) (in water, 288.15 K) was 0.00116 and the solubility (mole fraction) (in water, 293.15 K) was 0.00133. For the same molecule, the solubility (mole fraction) (in water, 298.15 K) was 0.00165, the solubility (mole fraction) (in water, 303.15 K) was 0.002 and the solubility (mole fraction) (in water, 308.15 K) was 0.00247. For the same molecule, the solubility (mole fraction) (in water, 313.15 K) was 0.00309, the solubility (mole fraction) (in water, 318.15 K) was 0.00448 and the solubility (mole fraction) (in water, 323.15 K) was 0.00737.
